Measurements taken from patent EP4000613A1, “PHARMACEUTICAL COMBINATIONS COMPRISING A PEPTIDE CXCR4 INHIBITOR AND A TAXANE FOR TREATING CANCER” (Polyphor AG, priority 2020, dated 2022).

Legend:
human CXCR4 receptor = experiment: In vitro receptor binding studies (CXCR4)
Text: (§1) In a particular preferred embodiment the peptidic CXCR4 inhibitor is cyclo(-Tyr-His-Ala-Cys-Ser-Ala-^DPro-Dab-Arg-Tyr-Cys-Tyr-Gln-Lys-^DPro-Pro-) having a disulfide bond between Cys^4 and Cys^11, or pharmaceutically acceptable sals thereof. Cyclo(-Tyr-His-Ala-Cys-Ser-Ala-^DPro-Dab-Arg-Tyr-Cys-Tyr-Gln-Lys-^DPro-Pro-) having a disulfide bond between Cys^4 and Cys^11 is also referred as POL6326 herein or balixafortide. POL6326 is a cyclic synthetic peptide consisting of 16 amino acids and an antagonist of the highly conserved chemokine receptor CXCR4.

[1] = test system: breast cancer PDX Ma15169; experiment: Tumor growth of breast cancer PDX Ma15169 in humanized NOG-EXL mice; assay type: in vivo; settings: for rating according to RECIST criteria: based on T/C at last day of the study (day 183); for T/C value: last day of the study (day 183), tumor volume treated-to-control
Procedure: The study was designed to determine the response of the breast cancer PDX Ma15169 to treatment with Paclitaxel single agent, Balixafortide single agent and the combination of both in humanized NOG-EXL mice. Humanized NOG-EXL mice bearing the breast cancer PDX Ma15169 were treated with Paclitaxel and Balixafortide according to Table 1. Ma15169 is a patient derived xenograft (PDX) that was from a patient with an invasive ductal carcinoma (ypT1a ypNla R0 G3 L1 V1). The patient tumour was ER/PR as well as Her-2 negative. The tumour material was expanded in 9 donor mice (NOG, Taconic; https://www.taconic.com/mouse-model/ciea-nog-mouse) and fragments of about 10mm3 were each implanted subcutaneously into the flank of 50 humanized NOG-EXL mice; at this time, the passage number of Ma15169 was #4. Table 1: Course of events during the study
Female NOG-EXL mice with an age of about 4 weeks were used for the constitution of human immune cells. 24 hours before CD34+ cell inoculation mice were irradiated with 1Gy. Human CD34+ cells were isolated from fresh cord blood within the laboratories of EPO (Experimental Pharmacology & Oncology Berlin-Buch GmbH, Berlin-Buch, Germany) and preserved in liquid nitrogen until use. For the study MV16883 a pool of 5 different donors (CB AG 101, CB AG 97, CB KR 104, CB AG 106, CB AG 107) prepared. After thawing the cells were washed with PBS, pooled and washed again followed by Trypan blue staining and cell counting using Neubauer chamber. A total of 5x10^4 vital cells were resuspended in 200µl PBS and injected intravenously into the tail vain of all mice.
Determination of human immune cells by FACS was performed at days 46, 84 and 115 after cell inoculation (leucocytes CD45+, B cells CD19+, T cells CD3+, NK cells CD56+/CD16+ and monocytes CD14+; Human Immunophenotyping 8-color-Kit (Miltenyi)). The mice were weighed weekly and monitored for general health two times weekly.
The PDX Ma15169 is maintained by EPO (Experimental Pharmacology & Oncology Berlin-Buch GmbH, Berlin-Buch, Germany) as in vivo passage; the passage number for this study was #4. Donor mice (female NOG; Taconic) with tumors of about 1cm3 were used for the preparation of this study MV16883.
After removal of the tumor tissue from donor mice, the tumors were cut into fragments (2-3 mm diameter - approximately 10mm3) and placed in cooled RPMI 1640 culture medium until s.c. implantation within 30 minutes. The humanized NOG-EXL mice were anaesthetized with Etomidate and received a small incision in the skin of the left flank. The tumor fragments (one fragment/mouse) were implanted with tweezers and the incision closed with a suture clip (#310417, Covetrus GmbH). The clips were removed after seven days and mice controlled two times weekly by means of palpation. The implantation of tumor fragments was performed 122 days after the inoculation of CD34+ cells.
Tumor bearing mice were stratified into 4 treatment groups according to their tumor volumes at day 154 post CD34+ cell inoculation (32 days after tumor implantation). […] During stratification the animals were individually marked by earmarks.
Paclitaxel (Taxomedac™ comprising paclictaxel, citric acid, ethanol and PEG (30-50) castor oil) was given i.v. at a dose of 10 mg/kg twice weekly. Balixafortide was given s.c. at a dose of 20 mg/kg once daily for the first 5 days and twice daily for 5 days followed by treatment breaks of 2 days until the end of treatment period (Fig. 1). Total treatment duration was 29 days. […]

[2] = test system: other potential target receptors; experiment: In vitro receptor binding studies (other receptors)
Text: as §1

| Structure (SMILES) | affinity for the human CXCR4 receptor (human CXCR4 receptor) | rating according to RECIST criteria [1] | optimum T/C value ([1]; day 168, Balixafortide 20 mg/kg s.c., p > 0.05) [%] | T/C value ([1]; Balixafortide 20 mg/kg s.c.) [%] | binding to other potential target receptors [2] | T/C value ([1]; Paclitaxel 10 mg/kg i.v. twice weekly, Balixafortide 20 mg/kg s.c.) [%] |
| --- | --- | --- | --- | --- | --- | --- |
| C[C@@H]1NC(=O)[C@H](Cc2c[nH]cn2)NC(=O)[C@H](Cc2ccc(O)cc2)NC(=O)[C@@H]2CCCN2C(=O)[C@H]2CCCN2C(=O)[C@H](CCCCN)NC(=O)[C@H](CCC(N)=O)NC(=O)[C@H](Cc2ccc(O)cc2)NC(=O)[C@@H]2CSSC[C@H](NC1=O)C(=O)N[C@@H](CO)C(=O)N[C@@H](C)C(=O)N1CCC[C@@H]1C(=O)N[C@@H](CCN)C(=O)N[C@@H](CCCNC(=N)N)C(=O)N[C@@H](Cc1ccc(O)cc1)C(=O)N2 [Balixafortide, cyclo(-Tyr-His-Ala-Cys-Ser-Ala-^DPro-Dab-Arg-Tyr-Cys-Tyr-Gln-Lys-^DPro-Pro-) having a disulfide bond between Cys^4 and Cys^11] | significant affinity | progressive disease | 79 | 107 | general lack of significant binding |  |
| CC(=O)O[C@H]1C(=O)[C@@]2(C)[C@H]([C@H](OC(=O)c3ccccc3)[C@]3(O)C[C@H](OC(=O)[C@H](O)[C@@H](NC(=O)c4ccccc4)c4ccccc4)C(C)=C1C3(C)C)[C@]1(OC(C)=O)CO[C@@H]1C[C@@H]2O [Paclitaxel] |  | stable disease |  |  |  | 42 |
